Test results: patent publication US7495024B2, “Phenylalkyl N-hydroxyureas for combating atherosclerotic plaque” (VIA Pharmaceuticals, Inc., priority 2006, dated 2009)

Experiments:
[1] = system: patients with carotid stenosis undergoing elective carotid endarterectomy; assay: Randomized, double blind, placebo-controlled study in patients with carotid stenosis undergoing carotid endarterectomy (Example 4); type: in vivo, human; settings: 100 mg daily oral
Description: In this randomized, double blind, placebo-controlled study, groups of 40 clinically stable patients between the age of 30 and 80 years with carotid stenosis undergoing elective carotid endarterectomy are treated by orally administering 100 mg of Compound X or placebo. A total of 80 patients are enrolled. Baseline assessments are performed at the start of treatment and these baseline results are compared with repeat assessments during various follow-up periods of treatment. The treatment is conducted for at least twelve weeks at which time these baseline assessments are performed and compared. […]
Plaque samples are obtained from patients following carotid endarterectomy surgery and the samples are analyzed to determine the level of plaque tissue inflammation. […]
The co-primary efficacy variables are: the change from baseline in ex vivo plaque LTB4 synthesis in whole blood and in ex vivo plaque LTB4 concentration after 12 weeks of administration of study medication. […] The significance of the difference between the groups with respect to the ex vivo plaque LTB4 concentrations is assessed by a t-test. […]
The secondary outcome measures of percent macrophage sectional area and number of T lymphocytes in plaque are analyzed using t-tests at the 0.05 alpha level (two sided). […]

[2] = system: ApoE-deficient mice; assay: Gross qualitative atherosclerotic lesion analysis of aortas, prevention of plaque formation (Example 1); type: in vivo; settings: 12-week old ApoE-deficient mice, 28 days
Source text: In Examples 1 and 2 knockout mice deficient in producing the protein Apolipoprotein E [apoE] were used. ApoE-deficient mice are known to spontaneously develop atherosclerotic plaque at 12-16 weeks, which process is accelerated by feeding the mice a high fat diet. Because the atherosclerotic lesions found in these mice are histologically similar to those found in humans, the ApoE-deficient mice are used as a model for assessing the effects of a drug on atherosclerotic plaque in humans. This example was carried out on ApoE-deficient knockout mice who were before their normal development of atherosclerotic plaque which occurs in about 12 weeks to determine the effect of compound X i.e. the compound: (N-[3-[5-[(4-fluorophenyl)methyl]-2-thienyl]-1-methyl-2-propynyl]-N-hydroxyurea) on the prevention of plaque formation. Four week old female ApoE knockout mice were fed a high fat diet (21% anhydrous milk fat and 0.15% cholesterol) for a period of eight weeks. […] The results which are given in FIG. 1 were analyzed by one-way analysis of variance (ANOVA) and Student's unpaired t-test comparing each treatment arm to the appropriate control arm.

CC(C#Cc1ccc(Cc2ccc(F)cc2)s1)N(O)C(N)=O (stereo not shown) [compound X, N-[3-[5-[(4-fluorophenyl)methyl]-2-thienyl]-1-methyl-2-propynyl]-N-hydroxyurea]
number of ischemic lesions after carotid endarterectomy by brain MRI using DWI, vs placebo group ([1]; 12 weeks): reduction in the number of ischemic lesions | level of biomarkers and plaque tissue inflammation, percentage of patients vs placebo group ([1]; 12 weeks of dosing): reduction in the level of biomarkers and plaque tissue inflammation | extent of plaque in the proximal aorta ([2]; high fat diet, 1, 10 and 50 mg/kg/day oral once daily, vs vehicle): reductions in the extent of plaque | reduction of plaque formation in the proximal aorta compared to vehicle ([2]; 50 mg/kg/day oral, p<0.03): ~40%
